Calls of active or inactive are those of the source. No cut-off for these calls is given here.

A word on the Kd: it is the constant that tells how readily two partners part at equilibrium. Low values mean tighter binding, high ones weaker binding. One may read the inhibition as how much of the control response was suppressed. Read a low inhibition as a response near the control. As a reminder, the IC50 is the concentration that inhibits the measured activity by half.

A short description of data set [1]: Binding affinity to human HSP70 at 25 degC by surface plasmon resonance assay.
The nature of data set [2]: Growth inhibition of human SK/LapR1.0 cells at 5 uM incubated for 72 hrs by ATP detection based luminescent assay. It counts as functional. The settings on record: read-out: GI.
For a further data set, the system named is NCI-N87. Briefly: Growth inhibition of human NCI-N87 cells at 0.016 to 4 uM incubated for 72 hrs by ATP detection based luminescent assay. In kind it is functional, cell-based.
Data set [3] in a line: Growth inhibition of human WI38 cells at 0.016 to 4 uM incubated for 72 hrs by ATP detection based luminescent assay. The settings on record: wi-38, 72 h. In kind it is cell-based.
The species named for the next data set is Homo sapiens. Briefly: Inhibition of HSP70 (unknown origin) at 200 uM pre-incubated for 30 mins followed by ATP addiction and measured after 3 hrs by malachite green reagent based colorimetric assay.
The subject of a further data set is BGC-823. Description: Growth inhibition of human BGC823 cells at 0.016 to 4 uM incubated for 72 hrs by ATP detection based luminescent assay. It counts as functional, cell-based.
Data set [4] can be described thus: Growth inhibition of human BT474 cells incubated for 72 hrs by ATP detection based luminescent assay. It counts as functional, cell-based. The following applies: BT-474, 72 h.
Another data set relates to HT-29. Description: Growth inhibition of human HT-29 cells at 0.016 to 4 uM incubated for 72 hrs by ATP detection based luminescent assay. In kind it is functional, cell-based.
In a further data set the test system is NCI-H460. Description: Growth inhibition of human H460 cells at 0.016 to 4 uM incubated for 72 hrs by ATP detection based luminescent assay. In kind it is functional, cell-based.
Data set [5] is described as follows: Growth inhibition of human BT/LapR1.0 cells incubated for 72 hrs by ATP detection based luminescent assay. It counts as functional.
Another data set relates to Huh-7. Description: Growth inhibition of human HuH7 cells at 0.016 to 4 uM incubated for 72 hrs by ATP detection based luminescent assay. It counts as functional, cell-based.
In the next data set the test system is HepG2. Description: Growth inhibition of human HepG2 cells at 0.016 to 4 uM incubated for 72 hrs by ATP detection based luminescent assay. In kind it is functional, cell-based.
The next data set relates to ASPC1. Briefly: Growth inhibition of human AsPC1 cells at 0.016 to 4 uM incubated for 72 hrs by ATP detection based luminescent assay. In kind it is functional, cell-based.
For the next data set, the system named is MIA PaCa-2. Briefly: Growth inhibition of human MIAPaCa2 cells at 0.016 to 4 uM incubated for 72 hrs by ATP detection based luminescent assay. In kind it is functional, cell-based.
The next data set concerns A549. Briefly: Growth inhibition of human A549 cells at 0.016 to 4 uM incubated for 72 hrs by ATP detection based luminescent assay. In kind it is functional, cell-based.
For a further data set, the system named is COLO 205. Description: Growth inhibition of human COLO205 cells at 0.016 to 4 uM incubated for 72 hrs by ATP detection based luminescent assay. In kind it is functional, cell-based.
A further data set relates to MRC5. Description: Growth inhibition of human MRC5 cells at 0.016 to 4 uM incubated for 72 hrs by ATP detection based luminescent assay. The settings on record: mrc5, 72 h. It counts as cell-based.
The nature of data set [6]: Growth inhibition of human BT/LapR1.0 cells at 5 uM incubated for 72 hrs by ATP detection based luminescent assay. In kind it is functional. The settings on record: read-out: GI.
A short description of data set [7]: Growth inhibition of human SKBR3 cells at 5 uM incubated for 72 hrs by ATP detection based luminescent assay. In kind it is functional. The following applies: SK-BR-3, 72 h, read-out: GI.
The test system of the next data set is MDA-MB-361. Briefly: Growth inhibition of human MDA-MB-361 cells at 5 uM incubated for 72 hrs by ATP detection based luminescent assay. It counts as functional. The following applies: MDA-MB-361, 72 h, read-out: GI.
Another data set relates to MDA-MB-453. Description: Growth inhibition of human MDA-MB-453 cells at 5 uM incubated for 72 hrs by ATP detection based luminescent assay. It counts as functional. The following applies: MDA-MB-453, 72 h, read-out: GI.
Data set [8] can be described thus: Growth inhibition of human BT474 cells at 5 uM incubated for 72 hrs by ATP detection based luminescent assay. The settings on record: BT-474, 72 h, read-out: GI. It counts as functional.

`CSc1ncc(CN2CCC(N(C)Cc3cccc(Cl)c3)CC2)s1` displayed a Kd in [1] of 245 nM. Moreover, the inhibition of growth at 5 µM in data set [2] was 7.3%.
For `CSc1nccc(N2CCC(N(C)Cc3c(F)cccc3Cl)CC2)n1`, the “growth inhibition (GI)” value in the data set on NCI-N87, with BGC-823, in the data set on HT-29, in the data set with NCI-H460, with Huh-7 and in the data set with HepG2 was “Active” in each case. Moreover, the “growth inhibition (GI)” value in the data set with ASPC1, with MIA PaCa-2, in the data set with A549 and in the data set with COLO 205 was “Active” in each case. Moreover, the “growth inhibition (GI)” value (in [3]; with MRC5) was “Non-toxic” throughout. Also, in the data set listed under Homo sapiens, the inhibition came out at 20.4%. In addition, the IC50 turned out to be 1040 nM in data set [4] and 940 nM in [5].
For the compound `CSc1nccc(N2CCC(N(C)Cc3ccc(Cl)cc3Cl)CC2)n1`, the “growth inhibition (GI)” value with NCI-N87, in the data set with BGC-823, in the data set with HT-29, with NCI-H460, with Huh-7 and in the data set with HepG2 was “Active” in each case. Further, the “growth inhibition (GI)” value in the data set with ASPC1, in the data set with MIA PaCa-2, in the data set with A549 and with COLO 205 was “Active” each time. The “growth inhibition (GI)” value (in data set [3]; with MRC5) was “Non-toxic” each time. The inhibition in the data set listed under Homo sapiens was determined as 8.28%. In addition, the IC50 in data set [4] worked out at 1620 nM; in data set [5], 1680 nM.
With `CSc1ncc(CN2CCC(N(C)Cc3ccc(C)cc3)CC2)s1`, the inhibition in the data set filed under Homo sapiens stood at 10.6%. This compound returned a Kd in [1] of 200 nM.
`CSc1nccc(N2CCC(N(C)Cc3ccccc3Cl)CC2)n1`: the “growth inhibition (GI)” value in the data set with NCI-N87, in the data set on BGC-823, in the data set with HT-29, in the data set with NCI-H460, with Huh-7 and in the data set with HepG2 was “Active” each time. Moreover, the “growth inhibition (GI)” value in the data set on ASPC1, with MIA PaCa-2, in the data set with A549 and in the data set on COLO 205 was “Active” throughout. Besides, the “growth inhibition (GI)” value (in data set [3]; in the data set on MRC5) was “Non-toxic” in each case. Also, the inhibition in the data set filed under Homo sapiens was determined as 11.6%. The inhibition of growth at 5 µM worked out at 17.5% in data set [6]; 22.2% in data set [7]; 36.2% in the data set with MDA-MB-361; 45.3% in the data set with MDA-MB-453; 21.3% in [8]; 34.2% in [2]. Also, the IC50 was determined as 1990 nM in data set [4] and 1700 nM in data set [5].
Regarding `CSc1ncc(CN2CCC(N(C)Cc3ccc(Cl)cc3Cl)CC2)s1`, in the data set filed under Homo sapiens, the inhibition came out at 6.21%. For the same compound, the inhibition of growth at 5 µM in [8] worked out at 70%.
`CCOc1ncc(CN2CCC(N(C)Cc3ccc(C#N)cc3)CC2)s1` had an inhibition in the data set filed under Homo sapiens of 5.49%. Besides, the inhibition of growth at 5 µM in data set [2] is 6.7%.
The compound `N#Cc1ccc(COC[C@H]2O[C@@H](n3c(NCc4ccc(Cl)c(Cl)c4)nc4c(N)ncnc43)[C@H](O)[C@@H]2O)cc1` yielded an inhibition in the data set listed under Homo sapiens of 43%. This compound also returned a Kd in data set [1] of 206 nM.
With `CSc1nccc(N2CCC(N(C)Cc3c(Cl)cccc3Cl)CC2)n1`, the “growth inhibition (GI)” value with NCI-N87, in the data set on BGC-823, in the data set on HT-29, in the data set on NCI-H460, in the data set on Huh-7 and in the data set with HepG2 was “Active” throughout. For the same compound, the “growth inhibition (GI)” value in the data set on ASPC1, with MIA PaCa-2, in the data set with A549 and in the data set on COLO 205 was “Active” each time. The “growth inhibition (GI)” value (in data set [3]; in the data set on MRC5) was “Non-toxic” each time. In the data set filed under Homo sapiens, this compound returned an inhibition of 12.8%. Further, the inhibition of growth at 5 µM stood at 70% in [6]; 85.9% in data set [7]; 53.2% with MDA-MB-361; 79.2% in the data set on MDA-MB-453; 73.1% in [8]; 71% in data set [2]. For the same compound, the IC50 stood at 780 nM in [4] and 700 nM in data set [5].
Compound `CSc1nccc(N2CCC(N(C)Cc3ccccc3C#N)CC2)n1` had an inhibition in the data set filed under Homo sapiens of 16.7%. For the same compound, the inhibition of growth at 5 µM in data set [6] was 68.1%; in data set [7], 87.6%; in the data set on MDA-MB-361, 64.1%; with MDA-MB-453, 68.7%; in [8] it was 74.2%; in [2] it was 80.7%.
As to `COc1nccc(N2CCC(N(C)Cc3ccc(F)cc3)CC2)n1`, in data set [1], the Kd worked out at 281 nM. Besides, the inhibition of growth at 5 µM in [2] was found to be 9%.
Consider `CSc1nccc(N2CCC(N(C)Cc3ccc(F)cc3)CC2)n1`, for which, in the data set listed under Homo sapiens, the inhibition was found to be 7.73%. Also, the inhibition of growth at 5 µM with MDA-MB-361 is 46%. In addition, in data set [1], the Kd came out at 204 nM.
With `COc1nccc(N2CCC(N(C)Cc3ccccc3Cl)CC2)n1`, in the data set listed under Homo sapiens, the inhibition worked out at 6.11%. Moreover, the inhibition of growth at 5 µM in data set [6] stood at 28.6%; in data set [7], 41.4%; in the data set on MDA-MB-361, 45.1%; in the data set with MDA-MB-453, 60.8%; in data set [8], 36.7%; in [2] it was 35.8%.

The record behind these values is ChEMBL document CHEMBL3414474, “Design and synthesis of piperidine derivatives as novel human heat shock protein 70 inhibitors for the treatment of drug-resistant tumors” (Eur J Med Chem, 2015).
